Test results published in ChEMBL document CHEMBL1201862, “PubChem BioAssay data set” (2004).
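Compound exposure: 48 hours, 5 concentrations, 96-well plates. At the GI50, growth is halved.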 Activity calls are given as the source filed them. Rule as the data show it: active = GI50 up to about 1.1 µM and inactive = higher.

Key:
Assay in all cases: NCI-60 cell line screen, 48 h
HT-29 = test system: HT-29
OVCAR-5 = test system: OVCAR-5
CCRF-CEM = test system: CCRF-CEM
HL-60 = test system: HL-60
RXF 393 = test system: RXF 393
SK-MEL-2 = test system: SK-MEL-2
SN12C = test system: SN12C
KM12 = test system: KM12
SF-539 = test system: SF-539
NCI-H460 = test system: NCI-H460
Malme-3M = test system: Malme-3M
EKVX = test system: EKVX
SNB-75 = test system: SNB-75
OVCAR-4 = test system: OVCAR-4
SK-MEL-28 = test system: SK-MEL-28
UO-31 = test system: UO-31
RPMI-8226 = test system: RPMI-8226
LOX IMVI = test system: LOX IMVI
K562 = test system: K562
CAKI-1 = test system: CAKI-1

Structure (SMILES)	GI50 (HT-29)	GI50 (OVCAR-5)	GI50 (CCRF-CEM)	GI50 (HL-60)	GI50 (RXF 393)	GI50 (SK-MEL-2)	GI50 (SN12C)	GI50 (KM12)	GI50 (SF-539)	GI50 (NCI-H460)	GI50 (Malme-3M)	GI50 (EKVX)	GI50 (SNB-75)	GI50 (OVCAR-4)	GI50 (SK-MEL-28)	GI50 (UO-31)	GI50 (RPMI-8226)	GI50 (LOX IMVI)	GI50 (K562)	GI50 (CAKI-1)
O=S(O)CCCCCSSc1ccccc1	84.9 µM (inactive)	> 100 µM (inactive)	4.5 µM (inactive)	14.1 µM (inactive)	18.3 µM (inactive)	18.2 µM (inactive)	27.8 µM (inactive)	53.3 µM (inactive)	22.8 µM (inactive)	68.9 µM (inactive)	10 µM (inactive)	> 100 µM (inactive)	37.3 µM (inactive)	> 100 µM (inactive)	61.1 µM (inactive)	31.6 µM (inactive)	18.5 µM (inactive)	20 µM (inactive)	15.3 µM (inactive)	
CCC1NC(/N=N/c2ccc([N+](=O)[O-])cc2)(P(=O)(OC(C)C)OC(C)C)OC1=O (stereo not drawn)	> 100 µM (inactive)	> 100 µM (inactive)	> 100 µM (inactive)	> 100 µM (inactive)		> 100 µM (inactive)	> 100 µM (inactive)	> 100 µM (inactive)	> 100 µM (inactive)		> 100 µM (inactive)	> 100 µM (inactive)	23.6 µM (inactive)	> 100 µM (inactive)	> 100 µM (inactive)	> 100 µM (inactive)	> 100 µM (inactive)		> 100 µM (inactive)	> 100 µM (inactive)
C=C1C(O)C2(O)OCC34C(CC5C(C)=CC(=O)C(O)C5(C)C23)OC(=O)C(OC(=O)C/C=C/CCCCCCCC)C14 (stereo not drawn)	0.0226 µM (active)	0.112 µM (active)	0.02 µM (active)	0.02 µM (active)	0.0223 µM (active)	0.0241 µM (active)	0.0275 µM (active)	0.0294 µM (active)	0.0208 µM (active)		0.02 µM (active)	0.02 µM (active)	0.0228 µM (active)		0.02 µM (active)	0.0452 µM (active)	0.02 µM (active)	0.0237 µM (active)	0.02 µM (active)	0.0449 µM (active)
C[C@@H](NC(=O)[C@@H]1C[C@]1(C)COC(=O)c1cc([N+](=O)[O-])cc([N+](=O)[O-])c1)c1cccc2ccccc12	52.2 µM (inactive)	> 100 µM (inactive)	> 100 µM (inactive)		12.6 µM (inactive)	> 100 µM (inactive)	> 100 µM (inactive)	> 100 µM (inactive)		> 100 µM (inactive)	6.87 µM (inactive)	> 100 µM (inactive)	37.1 µM (inactive)	> 100 µM (inactive)	> 100 µM (inactive)	> 100 µM (inactive)	> 100 µM (inactive)	60.1 µM (inactive)	> 100 µM (inactive)	> 100 µM (inactive)
C/C(=C\c1ccccc1)n1c(=O)cc(C)n1C	> 100 µM (inactive)	> 100 µM (inactive)	> 100 µM (inactive)		> 100 µM (inactive)	> 100 µM (inactive)	> 100 µM (inactive)	> 100 µM (inactive)	> 100 µM (inactive)	> 100 µM (inactive)		> 100 µM (inactive)	> 100 µM (inactive)	> 100 µM (inactive)	> 100 µM (inactive)	> 100 µM (inactive)	> 100 µM (inactive)	> 100 µM (inactive)	> 100 µM (inactive)	> 100 µM (inactive)
CSc1nc(NC2OCC(O)C(O)C2O)c(N)c(=O)n1C (stereo not drawn)	> 100 µM (inactive)	> 100 µM (inactive)	> 100 µM (inactive)	> 100 µM (inactive)	> 100 µM (inactive)	> 100 µM (inactive)	> 100 µM (inactive)	> 100 µM (inactive)	75.2 µM (inactive)	> 100 µM (inactive)	> 100 µM (inactive)	> 100 µM (inactive)	51.6 µM (inactive)	> 100 µM (inactive)	> 100 µM (inactive)	> 85.5 µM (inactive)	> 100 µM (inactive)	> 100 µM (inactive)	> 100 µM (inactive)	
O=C(NC(Cc1ccc(I)cc1)C(=O)O)c1cccc(Br)c1 (stereo not drawn)	> 100 µM (inactive)	> 100 µM (inactive)	69.2 µM (inactive)	> 100 µM (inactive)		> 80.7 µM (inactive)	> 100 µM (inactive)	55.1 µM (inactive)	84.1 µM (inactive)	96.8 µM (inactive)	70.1 µM (inactive)	> 61.7 µM (inactive)	39.2 µM (inactive)	> 92.9 µM (inactive)	49.8 µM (inactive)	> 100 µM (inactive)	47.8 µM (inactive)	> 95.9 µM (inactive)	48.6 µM (inactive)	> 100 µM (inactive)
